Key:
[1] = administered orally; cited from earlier work
[2] = Permeability assay, LLC-PK1-MOCK cells; type: in vitro ADME; settings: pig, LLC-PK1, 2 μM; for Papp A→B at 2 h, 2 µM / Papp B→A at 2 h, 2 µM: Mean ± SD, n = 3; for efflux ratio at 2 h, 2 µM: read-out: ER
Experimental: (§5) When the cell transport system was mature in culture, experiments were performed. […] When assessing permeability in basolateral to apical (B-A) direction, 100 μL of pre-warmed Buffer B and 600 μL of pre-warmed test solutions were added to the apical and basolateral compartments, respectively. The Transwells® were placed in an incubator at 37 °C and 5% CO2 for a duration of 2 h. At the end of the incubation period, the samples in the apical and basolateral sides were collected separately and were briefly kept at a temperature of −40 °C for LC-MS/MS analysis. […] The cells were transferred to Transwell® plates (Corning, NY, USA) at a density of 2 × 10^4 cells/well with 200 μL of cell suspension per well, while 850 μL of complete medium was added to the basolateral chamber. […] The samples were collected separately and were briefly kept at a temperature of −40 °C for LC-MS/MS analysis.

[3] = Bidirectional transport, Calu-3 air-liquid culture model; settings: human
[4] = Bidirectional transport, NCI-H441/dTHP co-culture model; type: in vitro ADME, human; settings: human; NCI-H441/dTHP, 2 μM, Mean ± SD, n = 3
Experimental: (§1) THP-1 cells were cultured in RPMI-1640 medium (Gibco, Thermo, CA, USA) supplemented with 10% FBS, PS (100 U/mL), and β-Mer (0.05 mM) at 37 °C in a humidified 5% CO2 incubator, and the medium was changed every other day. THP-1 cells were seeded at 4 × 10^5 cells/mL in six-well plates and induced for 48 h by adding medium containing a final concentration of 100 ng/mL PMA.
(§2) Then, the differentiated cells were seeded at 5 × 10^4 cells/well on the surface of NCI-H441 cells 10 days after air–liquid culture and continued to co-culture for 24 h.
(§3) We removed the liquid from the apical and basolateral of the Transwell, rinsed the cells three times with a buffer containing HBSS, 10 mM Hepes, and 0.1% BSA (Buffer A), and then added Buffer A (100 µL for the apical side and 600 µL for the basolateral side) for pre-incubation for 30 min at 37 °C. For the transport studies in the apical to basolateral (A-B) direction, 100 μL of pre-warmed test solution (Buffer A containing 2 µM positive control drugs or peramivir) was added to the apical side, while 600 μL of pre-warmed assay buffer, a buffer containing HBSS, 10 mM Hepes, and 1% BSA (Buffer B), was added to the basolateral compartment.

[5] = tested on: NCI-H441/dTHP co-culture model; assay: as above; type: in vitro ADME, human; settings: for ER: NCI-H441/dTHP, 2 μM
Experimental: as §1, §2, §3

P-gp (MDR1) = P-gp (MDR1) (Homo sapiens, UniProt P08183); assay: Permeability assay, LLC-PK1-MDR1 cells overexpressing P-gp; settings: for Papp B→A at 2 h, 2 µM / efflux ratio at 2 h, 2 µM: human, LLC-PK1
P-gp (MDR1), sequence (P08183 whole entry): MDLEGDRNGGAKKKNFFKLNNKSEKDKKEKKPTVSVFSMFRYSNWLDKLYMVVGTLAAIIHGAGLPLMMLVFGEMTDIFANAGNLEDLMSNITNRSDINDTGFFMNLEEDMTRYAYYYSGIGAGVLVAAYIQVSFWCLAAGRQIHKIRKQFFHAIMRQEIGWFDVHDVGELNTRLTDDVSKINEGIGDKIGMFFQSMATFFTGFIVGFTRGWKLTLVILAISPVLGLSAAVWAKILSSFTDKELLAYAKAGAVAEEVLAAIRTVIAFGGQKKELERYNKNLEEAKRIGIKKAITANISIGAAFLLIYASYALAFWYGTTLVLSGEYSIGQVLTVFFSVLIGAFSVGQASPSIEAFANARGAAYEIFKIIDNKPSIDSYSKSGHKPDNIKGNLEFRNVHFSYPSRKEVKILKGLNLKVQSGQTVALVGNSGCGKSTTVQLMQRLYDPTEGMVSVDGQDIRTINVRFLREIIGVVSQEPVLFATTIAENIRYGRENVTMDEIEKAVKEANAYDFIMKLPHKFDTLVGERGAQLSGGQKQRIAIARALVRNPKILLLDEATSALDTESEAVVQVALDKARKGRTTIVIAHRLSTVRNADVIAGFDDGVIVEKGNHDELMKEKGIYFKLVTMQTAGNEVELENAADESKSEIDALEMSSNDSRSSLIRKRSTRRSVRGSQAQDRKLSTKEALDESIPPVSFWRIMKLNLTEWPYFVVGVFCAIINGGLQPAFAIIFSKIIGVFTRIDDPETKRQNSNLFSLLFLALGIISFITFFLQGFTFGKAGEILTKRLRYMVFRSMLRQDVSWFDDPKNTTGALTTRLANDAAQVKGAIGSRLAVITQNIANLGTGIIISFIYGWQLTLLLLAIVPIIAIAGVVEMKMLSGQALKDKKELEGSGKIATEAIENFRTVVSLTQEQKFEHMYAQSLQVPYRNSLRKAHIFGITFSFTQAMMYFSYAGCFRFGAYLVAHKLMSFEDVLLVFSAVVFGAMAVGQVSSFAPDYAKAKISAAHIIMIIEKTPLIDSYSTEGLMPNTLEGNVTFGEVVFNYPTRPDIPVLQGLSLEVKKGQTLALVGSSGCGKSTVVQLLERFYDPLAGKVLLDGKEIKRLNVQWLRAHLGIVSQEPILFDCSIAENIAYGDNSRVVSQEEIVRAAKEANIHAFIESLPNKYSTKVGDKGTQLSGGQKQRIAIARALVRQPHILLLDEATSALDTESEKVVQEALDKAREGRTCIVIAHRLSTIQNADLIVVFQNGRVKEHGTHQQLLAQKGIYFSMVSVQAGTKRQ
Experimental: as §5

[6] = Bidirectional transport, NCI-H441 air-liquid culture model; type: in vitro ADME, human; settings: human, NCI-H441, 2 μM; for Papp A→B at 2 h, 2 µM / Papp B→A at 2 h, 2 µM: Mean ± SD, n = 3
Experimental: (§4) NCI-H441 cells were cultured in RPMI-1640 medium (Gibco, Thermo, CA, USA) supplemented with 10% FBS and PS (100 U/mL) at 37 °C in a humidified 5% CO2 incubator, and the medium was changed every other day. […] Then, 850 μL of complete medium (containing 200 nM dexamethasone) was added to the basolateral chamber. […] Subsequently, an air-interfaced culture (AIC) was initiated by supplying 650 μL of culture medium to the basolateral chamber only. The culture medium was replaced every other day.
as §3

NCI-H441 cell model = assay: as above; type: in vitro ADME, human
Experimental: as §4, §3

Calu-3 cell model = assay: Bidirectional transport, Calu-3 air-liquid culture model; settings: Calu-3, about 14 days air–liquid interface
BCRP = assay: Bidirectional transport, NCI-H441 air-liquid culture model; type: in vitro ADME, human; settings: human, with ko143 5 µM; NCI-H441, topotecan 2 μM with BCRP inhibitor ko143 (5 μM); read-out: ER value, inhibitor group
Experimental: as §4, §3

P-gp = assay: Bidirectional transport, Calu-3 air-liquid culture model; settings: human, with tariquidar 5 µM
human MDR1 (P-gp) = human MDR1 (P-gp) (Homo sapiens, UniProt P08183); assay: Permeability assay, LLC-PK1-MDR1 cells overexpressing P-gp; settings: LLC-PK1-MDR1, 2 μM, Mean ± SD, n = 3
human MDR1 (P-gp), sequence (P08183 whole entry): as above
Experimental: as §5

Papp A→B at 2 h, 2 µM [2]	Papp B→A at 2 h, 2 µM [2]	efflux ratio at 2 h, 2 µM [2]	Papp A→B at 2 h, 2 µM [3]	Papp B→A at 2 h, 2 µM [3]	Papp A→B at 2 h, 2 µM [4]	Papp B→A at 2 h, 2 µM [4]	ER [5]	Papp B→A at 2 h, 2 µM (P-gp (MDR1))	efflux ratio at 2 h, 2 µM (P-gp (MDR1))	Papp A→B at 2 h, 2 µM [6]	Papp B→A at 2 h, 2 µM [6]	Compound	other results
												CC(=O)N[C@H]1[C@H]([C@H](O)[C@H](O)CO)OC(C(=O)O)=C[C@@H]1N=C(N)N [zanamivir]	absolute bioavailability [1]: approximately 2%
28.5 ± 2.17 ×10⁻⁶ cm/s	25.6 ± 3.71 ×10⁻⁶ cm/s	0.9	29.8 ± 2.28 ×10⁻⁶ cm/s	21.9 ± 3.73 ×10⁻⁶ cm/s	27.9 ± 7.99 ×10⁻⁶ cm/s	24.36 ± 0.22 ×10⁻⁶ cm/s	0.90	23.1 ± 1.94 ×10⁻⁶ cm/s	1.13	25.6 ± 5.45 ×10⁻⁶ cm/s	23.4 ± 2.96 ×10⁻⁶ cm/s	COCCc1ccc(OCC(O)CNC(C)C)cc1 (stereo not drawn) [Metoprolol]	efflux ratio at 2 h, 2 µM [3]: 29.8 ± 2.28; Papp A→B at 2 h, 2 µM (P-gp (MDR1)): 20.4 ± 1.24 ×10⁻⁶ cm/s; ER (NCI-H441 cell model; NCI-H441, 2 μM): 0.91
												NNC(=O)NN1C(=O)c2cc(S(=O)(=O)[O-])cc3c(N)c(S(=O)(=O)[O-])cc(c23)C1=O.[K+].[K+] [Lucifer yellow CH dipotassium salt]	permeability value (barrier integrity) (Calu-3 cell model): < 2e-06 cm/s; permeability value (barrier integrity) ([5]; NCI-H441/dTHP co-culture 24 h): < 2e-06 cm/s; permeability value (barrier integrity) (NCI-H441 cell model; NCI-H441, about 7 days air–liquid interface): < 2e-06 cm/s
							0.88					CC(C)NCC(O)COc1ccc(CC(N)=O)cc1 (stereo not drawn) [Atenolol]	
					2.88 ± 0.55 ×10⁻⁶ cm/s	6.18 ± 1.63 ×10⁻⁶ cm/s	2.15			1.54 ± 0.12 ×10⁻⁶ cm/s	3.47 ± 0.26 ×10⁻⁶ cm/s	CC[C@@]1(O)C(=O)OCc2c1cc1n(c2=O)Cc2cc3c(CN(C)C)c(O)ccc3nc2-1 [Topotecan]	efflux ratio at 2 h, 2 µM (BCRP): ~1; efflux ratio at 2 h, 2 µM ([6]; read-out: ER): 2.25
1.64 ± 0.27 ×10⁻⁶ cm/s	2.22 ± 0.36 ×10⁻⁶ cm/s	1.35	0.66 ± 0.02 ×10⁻⁶ cm/s	25.1 ± 7.18 ×10⁻⁶ cm/s				9.76 ± 0.73 ×10⁻⁶ cm/s	13.1			C[C@H]1O[C@@H](O[C@H]2[C@@H](O)C[C@H](O[C@H]3[C@@H](O)C[C@H](O[C@H]4CC[C@@]5(C)[C@H](CC[C@@H]6[C@@H]5C[C@@H](O)[C@]5(C)[C@@H](C7=CC(=O)OC7)CC[C@]65O)C4)O[C@@H]3C)O[C@@H]2C)C[C@H](O)[C@@H]1O [Digoxin]	efflux ratio at 2 h, 2 µM (P-gp): ~1; Papp A-B (human MDR1 (P-gp)): 0.74 ± 0.15 ×10−6 cm/s
